Earlier results on one compound are cited in US7584087B2, “Structure of protein kinase C theta” (Wyeth, priority 2004, dated 2009).

Common to all, as to details: result in words, from Meggio et al. 1995
The test system of data set [1] is mitogen-activated protein kinase (MAPK).
The subject of data set [2] is casein kinase 2 (CK2).
Data set [3] has as its target CSK (Homo sapiens, UniProt P41240).
The test system of data set [4] is PKC isoforms.
The subject of data set [5] is casein kinase 1 (CK1).

Chain of CSK (P41240 whole entry, species assumed, canonical isoform): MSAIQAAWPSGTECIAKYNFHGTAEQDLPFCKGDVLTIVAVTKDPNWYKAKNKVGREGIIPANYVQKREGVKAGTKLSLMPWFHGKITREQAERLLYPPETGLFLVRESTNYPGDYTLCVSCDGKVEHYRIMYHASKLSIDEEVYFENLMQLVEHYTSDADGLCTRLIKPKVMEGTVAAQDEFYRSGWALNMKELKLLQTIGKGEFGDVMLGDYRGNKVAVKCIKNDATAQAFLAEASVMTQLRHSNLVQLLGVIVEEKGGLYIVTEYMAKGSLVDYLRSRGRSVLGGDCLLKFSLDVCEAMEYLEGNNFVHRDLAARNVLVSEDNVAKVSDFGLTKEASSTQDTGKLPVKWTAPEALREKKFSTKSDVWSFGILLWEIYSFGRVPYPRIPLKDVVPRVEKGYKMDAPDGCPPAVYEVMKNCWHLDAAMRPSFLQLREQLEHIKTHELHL

With `CN[C@@H]1C[C@H]2O[C@@](C)([C@@H]1OC)n1c3ccccc3c3c4c(c5c6ccccc6n2c5c31)C(=O)NC4` [Staurosporine, staurosporine], the “potency against mitogen-activated protein kinase (MAPK)” value in data set [1] is “micromolar”. Moreover, the “potency against casein kinase 2 (CK2)” value in data set [2] is “micromolar”. Further, the “potency against CSK” value in data set [3] was “micromolar”. The “potency against PKC isoforms” value in data set [4] was “low nanomolar”. Moreover, the “potency against casein kinase 1 (CK1)” value in data set [5] is reported as “micromolar”.
